System: BRK-BaF3 cells
Assay: Cell antiproliferative activity assay (CCK-8), BRK-BaF3
Assay type: cell-based
Settings: 72 h, CCK-8, 3 days incubation
Method: The activity of compounds against BRK kinase can be evaluated by their inhibition of the growth of the BRK kinase-stably transfected BaF3 cell line (BRK-BaF3) and wild-type BaF3 cells (WT-BaF3). […] The larger the ratio of the half-maximal growth inhibitory concentration (IC50) of a compound between WT-BaF3 and BRK-BaF3 cells, the better the selectivity of the compound.
BRK-BaF3, WT-BaF3, WEHI cell line, and breast cancer cell line T47D were cultured using RPMI 1640 Basal medium or DMEM (Dulbecco's Modified Eagle Medium) (Shanghai Peiyuan Biotechnology, L220KJ), supplemented with 10% FBS (Gibco, REF 10099-141C) and 1% P/S (Shanghai Peiyuan Biotechnology, S110JV), in an incubator (Thermo 3020) at 37°C with 5% CO2. Cell viability was above 95%. Cells were passaged at a 3:1 ratio every 3-4 days. For WT-BaF3 cells, WEHI cells were first cultured, and their culture supernatant was filtered through a 0.22 µm filter. This supernatant was added at 10% to the regular culture medium to supplement IL-3 required for WT-BaF3 cell proliferation, which served as the culture medium for WT-BaF3. For testing, cells were first collected and counted, then prepared into a cell suspension at 100,000 cells/mL and plated at 100 µL per well. Drug concentrations started from 10 µM and were serially diluted 3:1. After incubation for 3 days, 20 µL of CCK-8 detection reagent (Targetmol C005) was added to each well. After incubation for 2-4 hours, OD450 was measured using a microplate reader (Varioskan LUX, Thermo Scientific). After subtracting the blank background, the curve was fitted and the IC50 was calculated using XLfit software.

IC50 [nM]	Structure (SMILES)
≤ 20	Cc1ccc(C#N)nc1-c1cc(C(C)C)c2nc(Nc3cn(CCO)nc3C)ncc2c1 [I-5]
20 to 100	Cc1nn(CCO)cc1Nc1ncc2cc(-c3ccnc(F)c3F)cc(C(C)C)c2n1 [I-15]
≤ 20	Cc1nn(CCO)cc1Nc1ncc2cc(-c3cc(F)ncc3F)cc(C(C)C)c2n1 [I-16]
≤ 20	CC(=O)c1cc(-c2cc(C(C)C)c3nc(Nc4cn(CCO)nc4C)ncc3c2)ccn1 [I-18]
20 to 100	Cc1cnc(F)cc1-c1cc(C(C)C)c2nc(Nc3cnn(CCO)c3C)ncc2c1 [I-19]
20 to 100	Cc1nn(CCO)cc1Nc1ncc2cc(-c3cccnc3C(F)F)cc(C(C)C)c2n1 [I-23]
≤ 20	CCc1ncccc1-c1cc(C(C)C)c2nc(Nc3cn(CCO)nc3C)ncc2c1 [I-24]
≤ 20	Cc1nn(CCO)cc1Nc1ncc2cc(-c3cncc(Br)c3Cl)cc(C(C)C)c2n1 [I-37]
≤ 20	Cc1nn(CCO)cc1Nc1ncc2cc(-c3cncc(Cl)c3Cl)cc(C(C)C)c2n1 [I-38]
20 to 100	Cc1c(Nc2ncc3cc(-c4cnccc4F)cc(C(C)C)c3n2)cnn1CCO [I-58]
20 to 100	Cc1c(Nc2ncc3cc(-c4cnccc4C#N)cc(C(C)C)c3n2)cnn1CCO [I-63]
≤ 20	Cc1c(F)cncc1-c1cc(C(C)C)c2nc(Nc3cnn(CCO)c3C)ncc2c1 [I-67]
20 to 100	Cc1ncc(F)cc1-c1cc(C(C)C)c2nc(Nc3cnn(CCO)c3C)ncc2c1 [I-69]
≤ 20	Cc1c(Nc2ncc3cc(-c4c(F)ccnc4F)cc(C(C)C)c3n2)cnn1CCO [I-70]
≤ 20	Cc1ccnc(C)c1-c1cc(C(C)C)c2nc(Nc3cnn(CCO)c3C)ncc2c1 [I-71]
≤ 20	Cc1nn(CCO)cc1Nc1ncc2cc(-c3nccnc3Cl)cc(C(C)C)c2n1 [I-80]
20 to 100	Cc1nn(CCO)cc1Nc1ncc2cc(-c3cncc(Cl)n3)cc(C(C)C)c2n1 [I-89]
20 to 100	COc1cncc(-c2cc(C(C)C)c3nc(Nc4cn(CCO)nc4C)ncc3c2)n1 [I-91]

IC50 [nM]	Structure (SMILES)
20 to 100	Cc1nn(CCO)cc1Nc1ncc2cc(-c3cccnn3)cc(C(C)C)c2n1 [I-115]
20 to 100	Cc1ncnc(C)c1-c1cc(C(C)C)c2nc(Nc3cnn(CCO)c3C)ncc2c1 [I-145]
≤ 20	Cc1nn(CCO)cc1Nc1ncc2cc(-c3cccc(F)c3F)cc(C(C)C)c2n1 [I-156]
≤ 20	Cc1nn(CCO)cc1Nc1ncc2cc(-c3cc(F)cc(F)c3)cc(C(C)C)c2n1 [I-158]
≤ 20	Cc1nn(CCO)cc1Nc1ncc2cc(-c3cc(F)ccc3F)cc(C(C)C)c2n1 [I-159]
≤ 20	Cc1ccc(F)cc1-c1cc(C(C)C)c2nc(Nc3cn(CCO)nc3C)ncc2c1 [I-161]
≤ 20	Cc1nn(CCO)cc1Nc1ncc2cc(-c3cccc4c3OCO4)cc(C(C)C)c2n1 [I-163]
20 to 100	Cc1nn(CCO)cc1Nc1ncc2cc(-c3cccc4c3OCO4)cc(C3CC3)c2n1 [I-166]
20 to 100	Cc1c(Nc2ncc3cc(-c4cc(F)ccc4F)cc(C(C)C)c3n2)cnn1CCO [I-169]
≤ 20	Cc1ccc(F)cc1-c1cc(C(C)C)c2nc(Nc3cnn(CCO)c3C)ncc2c1 [I-171]
≤ 20	Cc1c[nH]c(=O)cc1-c1cc(C(C)C)c2nc(Nc3cn(CCO)nc3C)ncc2c1 [I-172]
20 to 100	Cc1c[nH]c(=O)cc1-c1cc(C(C)C)c2nc(Nc3cn(C(C)(C)CO)nc3C)ncc2c1 [I-173]
≤ 20	Cc1c[nH]c(=O)cc1-c1cc(C(C)C)c2nc(Nc3cnn(CCO)c3)ncc2c1 [I-174]
≤ 20	Cc1c[nH]c(=O)cc1-c1cc(C(C)C)c2nc(Nc3cn(CC(C)(C)O)nc3C)ncc2c1 [I-175]
≤ 20	Cc1c[nH]c(=O)cc1-c1cc(C(C)C)c2nc(Nc3cnn(CC(C)(C)O)c3C)ncc2c1 [I-180]
≤ 20	Cc1ccc2[nH]ncc2c1-c1cc(C(C)C)c2nc(Nc3cn(CCO)nc3C)ncc2c1 [I-182]
≤ 20	Cc1ccc2[nH]ncc2c1-c1cc(C(C)C)c2nc(Nc3cnn(CCO)c3C)ncc2c1 [I-183]
≤ 20	Cc1nn(CCO)cc1Nc1ncc2cc(-c3cncc4ccccc34)cc(C(C)C)c2n1 [I-184]

Reference: patent EP4803513A1, “SUBSTITUTED QUINAZOLINE COMPOUND, PREPARATION METHOD THEREFOR, PHARMACEUTICAL COMBINATION THEREOF, AND USE THEREOF” (Hongyun Biotech Co., Ltd., priority 2023, dated 2025)
